From patent US6777412B2 (priority 1990, dated 2004)
Read-outs that look alike come from different tables or passages of the source. Marks after values point to notes of the source that are not given here.

Key:
Assay type in all cases: in vivo
Erysiphe graminis hordei = assay: Foliar fungal disease test on plants: Erysiphe graminis hordei (Egh)
Procedure: (§1) The compounds were tested against a variety of foliar fungal diseases of plants. The technique employed was as follows.
(§2) The plants were grown in John Innes Potting Compost (No.1 or 2) in 4 cm diameter minipots. The test compounds were formulated either by bead milling with aqueous Dispersol T or as a solution in acetone or acetone/ethanol which was diluted to the required concentration immediately before use. For the foliage diseases, the formulations (100 ppm active ingredient except where otherwise indicated) were sprayed onto the foliage and applied to the roots of the plants in the soil. The sprays were applied to maximum retention and the root drenches to a final concentration equivalent to approximately 40 ppm a.i. in dry soil. Tween 20, to give a final concentration of 0.05%, was added when the sprays were applied to cereals.
(§3) For most of the tests the compound was applied to the soil (roots) and to the foliage (by spraying) one or two days before the plant was inoculated with the disease. An exception was the test on Erysiphe graminis in which the plants were inoculated 24 hours before treatment. Foliar pathogens were applied by spray as spore suspensions onto the leaves of test plants. After inoculation, the plants were put into an appropriate environment to allow infection to proceed and then incubated until the disease was ready for assessment. The period between inoculation and assessment varied from four to fourteen days according to the disease and environment.
(§4) The disease control vas recorded by the following grading:
(§5) 3=trace-5% of disease on untreated plants
(§6) 2=6-25% of disease on untreated plants
(§7) 1=26-59% of disease on untreated plants
(§8) 0=60-100% of disease on untreated plants
Egh Erysiphe graminis hordei

Thanatephorus cucumeris = assay: Foliar fungal disease test on plants: Thanatephorus cucumeris (Tc)
Procedure: as §1, §2, §3, §4, §5, §6, §7, §8
Tc Thanatephorus cucumeris

[1] = tested on: Phytophthora infestans lycopersici
Pyricularia oryzae = tested on: Pyricularia oryzae
Venturia inaequalis = assay: Foliar fungal disease test on plants: Venturia inaequalis (Vi)
Method in brief: (§9)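 Potted plants treated by foliar spray to maximum retention (100 ppm a.i. unless stated) plus root drench (~40 ppm a.i. in dry soil), with 0.05% Tween 20 on cereals, one or two days before spore-suspension inoculation.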

Plasmopara viticola = assay: Foliar fungal disease test on plants: Plasmopara viticola (Pv)
Method in brief: as §9

Puccinia recondita = assay: Foliar fungal disease test on plants: Puccinia recondita (Pr)
Method in brief: as §9

Septoria nodorum = assay: Foliar fungal disease test on plants: Septoria nodorum (Sn)
Procedure: as §1, §2, §3, §4, §5, §6, §7, §8

[2] = tested on: Erysiphe graminis tritici; assay: Foliar fungal disease test on plants: Erysiphe graminis tritici (Egt); details: 100 ppm active ingredient foliar spray plus root drench (approx. 40 ppm a.i. in dry soil); plants inoculated 24 hours before treatment
Procedure: as §1, §2, §3, §4, §5, §6, §7, §8
Egt Erysiphe graminis tritici

[3] = 100 ppm active ingredient foliar spray plus root drench (approx. 40 ppm a.i. in dry soil), plants inoculated 24 hours before treatment
[4] = 100 ppm active ingredient foliar spray plus root drench (approx. 40 ppm a.i. in dry soil), one or two days before inoculation

SMILES | disease control grading, Egh (Erysiphe graminis hordei) (Erysiphe graminis hordei; [3]) | disease control grading, Tc (Thanatephorus cucumeris) (Thanatephorus cucumeris; [4]) | disease control grading, Pil (Phytophthora infestans lycopersici) [1, 4] | disease control grading, Po (Pyricularia oryzae) (Pyricularia oryzae; [4]) | disease control grading, Vi (Venturia inaegualis) (Venturia inaequalis; [4]) | disease control grading, Pv (Plasmopara viticola) (Plasmopara viticola; [4]) | disease control grading, Pr (Puccinia recondita) (Puccinia recondita; [4]) | disease control grading, Egh (Erysiphe graminis hordei) (Erysiphe graminis hordei; 10 ppm foliar application only) | disease control grading, Tc (Thanatephorus cucumeris) (Thanatephorus cucumeris; 10 ppm foliar application only) | disease control grading, Pil (Phytophthora infestans lycopersici) ([1]; 10 ppm foliar application only) | disease control grading, Po (Pyricularia oryzae) (Pyricularia oryzae; 10 ppm foliar application only) | disease control grading, Vi (Venturia inaegualis) (Venturia inaequalis; 10 ppm foliar application only) | disease control grading, Pv (Plasmopara viticola) (Plasmopara viticola; 10 ppm foliar application only) | disease control grading, Pr (Puccinia recondita) (Puccinia recondita; 10 ppm foliar application only) | disease control grading, Sn (Septoria nodorum) (Septoria nodorum; 10 ppm foliar application only) | disease control grading, Sn (Septoria nodorum) (Septoria nodorum; [4]) | disease control grading, Egt (Erysiphe graminis tritici) [2]
CO/C=C(/C(=O)OC)c1ccccc1Oc1cc(OCc2ccc([N+](=O)[O-])cc2)ncn1 [133 of Table I] | 4 (4=no disease) | 4 (4=no disease) | 0 (0=60-100% of disease on untreated plants) | 3 (3=trace-5% of disease on untreated plants) | 3 (3=trace-5% of disease on untreated plants) | 4 (4=no disease) | 4 (4=no disease) | – | – | – | – | – | – | – | – | – | –
CO/C=C(/C(=O)OC)c1ccccc1Oc1cc(OCc2ccccc2[N+](=O)[O-])ncn1 [375 of Table I] | 4 (4=no disease) | 4 (4=no disease) | 0 (0=60-100% of disease on untreated plants) | 4 (4=no disease) | 3 (3=trace-5% of disease on untreated plants) | 3 (3=trace-5% of disease on untreated plants) | 4 (4=no disease) | – | – | – | – | – | – | – | – | – | –
CO/C=C(/C(=O)OC)c1ccccc1Oc1cc(OC/C=C/c2ccccc2)ncn1 [376 of Table I] | 4 (4=no disease) | 4 (4=no disease) | 4 (4=no disease) | 3 (3=trace-5% of disease on untreated plants) | 4 (4=no disease) | 4 (4=no disease) | 4 (4=no disease) | – | – | – | – | – | – | – | – | – | –
CO/C=C(/C(=O)OC)c1ccccc1Oc1cc(OCc2c(Cl)cccc2C(F)(F)F)ncn1 [383 of Table I] | – | – | – | – | – | – | – | 0^a (0=60-100% of disease on untreated plants) | 4^a (4=no disease) | 0^a (0=60-100% of disease on untreated plants) | 0^a (0=60-100% of disease on untreated plants) | 3^a (3=trace-5% of disease on untreated plants) | 4^a (4=no disease) | 4^a (4=no disease) | 4^a (4=no disease) | – | –
CO/C=C(/C(=O)OC)c1ccccc1Oc1cc(OCCCc2ccccc2Cl)ncn1 [384 of Table I] | 4 (4=no disease) | 4 (4=no disease) | 4 (4=no disease) | – | 4 (4=no disease) | 4 (4=no disease) | 4 (4=no disease) | – | – | – | – | – | – | – | – | 4 (4=no disease) | –
CO/C=C(/C(=O)OC)c1ccccc1Oc1cc(OCc2ccccc2C(F)(F)F)ncn1 [385 of Table I] | 4 (4=no disease) | 4 (4=no disease) | 4 (4=no disease) | – | 4 (4=no disease) | 4 (4=no disease) | 4 (4=no disease) | – | – | – | – | – | – | – | – | 4 (4=no disease) | –
CO/C=C(/C(=O)OC)c1ccccc1Oc1cc(OCc2c(F)cccc2Cl)ncn1 [386 of Table I] | 4 (4=no disease) | 4 (4=no disease) | 4 (4=no disease) | 4 (4=no disease) | 4 (4=no disease) | 4 (4=no disease) | 4 (4=no disease) | – | – | – | – | – | – | – | – | 4 (4=no disease) | –
CO/C=C(/C(=O)OC)c1ccccc1Oc1cc(OCC#Cc2ccccc2)ncn1 [387 of Table I] | 4 (4=no disease) | 4 (4=no disease) | 4 (4=no disease) | 4 (4=no disease) | 4 (4=no disease) | 4 (4=no disease) | 4 (4=no disease) | – | – | – | – | – | – | – | – | 4 (4=no disease) | –
CO/C=C(/C(=O)OC)c1ccccc1Oc1cc(OCc2c(F)c(F)c(F)c(F)c2F)ncn1 [388 of Table I] | 4 (4=no disease) | 4 (4=no disease) | 4 (4=no disease) | 4 (4=no disease) | 4 (4=no disease) | 4 (4=no disease) | 4 (4=no disease) | – | – | – | – | – | – | – | – | 4 (4=no disease) | –
CO/C=C(/C(=O)OC)c1ccccc1Oc1cc(OCc2ccccc2C#N)ncn1 [389 of Table I] | – | – | – | – | – | – | – | 4^a (4=no disease) | 4^a (4=no disease) | 0^a (0=60-100% of disease on untreated plants) | 4^a (4=no disease) | 4^a (4=no disease) | 4^a (4=no disease) | 4^a (4=no disease) | 4^a (4=no disease) | – | –
CO/C=C(/C(=O)OC)c1ccccc1Oc1cc(OCCOc2ccc(C#N)cc2)ncn1 [390 of Table I] | 3 (3=trace-5% of disease on untreated plants) | 1 (1=26-59% of disease on untreated plants) | 0 (0=60-100% of disease on untreated plants) | 4 (4=no disease) | 4 (4=no disease) | 4 (4=no disease) | 4 (4=no disease) | – | – | – | – | – | – | – | – | 3 (3=trace-5% of disease on untreated plants) | –
CO/C=C(/C(=O)OC)c1ccccc1Oc1cc(Sc2nc3ccccc3s2)ncn1 [530 of Table I] | – | – | 4 (4=no disease) | 0 (0=60-100% of disease on untreated plants) | 4 (4=no disease) | 4 (4=no disease) | 3 (3=trace-5% of disease on untreated plants) | – | – | – | – | – | – | – | – | 4 (4=no disease) | 4 (4=no disease)
